{
  "source": "patent US9943555B2",
  "about": "“Bacteria engineered to reduce hyperphenylalaninemia” (Synlogic, Inc., priority 2015, dated 2018)",
  "origin": "cited, not measured here",
  "tested_on": "patients / subjects with phenylketonuria",
  "data": [
    {"smiles": "C[C@H](O)[C@H](O)[C@H]1CNc2nc(N)[nH]c(=O)c2N1", "note": "[Kuvan, tetrahydrobiopterin]", "values": [
      {"measurement": "side effects", "result": "gastritis and severe allergic reactions"}
    ]}
  ]
}
